According to ChEMBL document CHEMBL6087476, “Positive Charge-Concentrated Dimeric Lipopeptides with Enhanced Protease Resistance: A Potential Solution for Systemic Bacterial Infections” (J Med Chem, 2025):
Values after ≈ are worked out from the molar mass of the structure shown. Active and inactive are the calls of the source. The calls are words filed in the database; no cut-off is given here.

What was measured:
[1] = Toxicity in ICR mouse assessed as slight manifestation of stooping at 20 mg/kg, ip measured after 1 hr; assay type: organism-based; settings: in vivo
[2] = system: Escherichia coli; assay: Induction of membrane damage in Escherichia coli ATCC 25922 assessed as damaged membrane surface (irregular vesicles protrusions) at 8 uM measured after 1 hr incubation by SEM analysis; assay type: functional, organism-based
[3] = system: Cell membrane; assay: Induction of depolarization of cytoplasmic membrane (CM) in Escherichia coli ATCC 25922 assessed as fluorescence changes at 1/2 to 3 times of MIC by fluorescent probe DiSC3-5 assay; assay type: subcellular; settings: time 1000-3000 sec
[4] = system: Escherichia coli; assay: Antimicrobial activity against Escherichia coli ATCC 25922 assessed as increase in absorbance at 8 mg/ml incubated for 8 hrs in presence of chymotrypsin; assay type: functional, organism-based
[5] = system: Staphylococcus epidermidis; assay: Antimicrobial activity against Staphylococcus epidermidis 12228 assessed as increase in absorbance incubated for 20 to 22 hrs; assay type: functional; settings: time 20-22 hrs
[6] = Toxicity in ICR mouse assessed as body weight change at 5 to 20 mg/kg, ip measured after 3 days; assay type: organism-based; settings: in vivo, 72 h, dose 5-20 mg/kg, time 3 day
[7] = system: Escherichia coli; assay: Antimicrobial activity against Escherichia coli ATCC 25922 assessed as increase in absorbance at 8 mg/ml incubated for 8 hrs in presence of pepsin; assay type: functional, organism-based
[8] = system: Staphylococcus aureus; assay: Antimicrobial activity against methicillin-resistant Staphylococcus aureus 43300 assessed as increase in absorbance incubated for 20 to 22 hrs; assay type: functional; settings: time 20-22 hrs
[9] = system: Escherichia coli; assay: Induction of membrane damage in Escherichia coli ATCC 25922 assessed as ruptured membrane by analysing red fluorescence at 8 uM measured after 1 hr incubation by PI - live and dead staining based fluorescence microscopy; assay type: functional, organism-based
[10] = system: Mus musculus; assay: Anti-inflammatory activity against Escherichia coli ATCC 25922-induced peritonitis ICR mouse model assessed as decrease in IL-6 level in serum spleen at 10 mg/kg, ip measured after 12 hrs; assay type: functional, organism-based
[11] = target: Trypsin (Homo sapiens, UniProt P07477+P07478+P35030); assay: Stability of compound assessed as trypsin (unknown origin)-mediated compound structural integrity change at 8 mg/ml incubated for 1 to 8 hrs by 16.5% tricine-SDS-PAGE analysis; assay type: ADME, protein assay; settings: time 1-8 hrs
[12] = system: Mus musculus; assay: Anti-inflammatory activity against Escherichia coli ATCC 25922-induced peritonitis ICR mouse model assessed as decrease in TNF-alpha level in serum spleen at 10 mg/kg, ip measured after 12 hrs; assay type: functional, organism-based
[13] = Toxicity in ICR mouse assessed as alkaline phosphatase (ALP) level in serum at 5 to 20 mg/kg, ip measured after 3 days; assay type: organism-based; settings: in vivo, 72 h, dose 5-20 mg/kg, time 3 day
[14] = system: Escherichia coli; assay: Antibacterial activity against Escherichia coli ATCC 25922 injected intraperitoneally in ICR mouse assessed as reduction bacterial load in liver at 10 mg/kg, ip measured after 12 hrs by H and E staining based assay; assay type: functional, organism-based
[15] = system: Escherichia coli; assay: Antimicrobial activity against Escherichia coli K99 assessed as increase in absorbance incubated for 20 to 22 hrs; assay type: functional; settings: time 20-22 hrs
[16] = system: Escherichia coli; assay: Induction of membrane damage in Escherichia coli ATCC 25922 assessed as ruptured membrane by analysing green fluorescence at 8 uM measured after 1 hr incubation by SYTO - live and dead staining based fluorescence microscopy; assay type: functional, organism-based
[17] = target: Chymotrypsin (Homo sapiens, UniProt Q99895+P17538+P40313+Q6GPI1); assay: Stability of compound assessed as chymotrypsin (unknown origin)-mediated compound structural integrity change at 8 mg/ml incubated for 1 to 8 hrs by 16.5% tricine-SDS-PAGE analysis; assay type: ADME, protein assay; settings: time 1-8 hrs
[18] = system: Escherichia coli; assay: Antimicrobial activity against Escherichia coli ATCC 25922 assessed as increase in absorbance at MIC concentration in presence of […] ug/ml Lipopolysaccharide incubated for 8 hrs; assay type: functional, organism-based; settings: dose 64.0 µg/ml
[19] = system: Escherichia coli; assay: Antimicrobial activity against Escherichia coli ATCC 25922 assessed as increase in absorbance incubated for 20 to 22 hrs in presence of Mg2+ physiological salt; assay type: functional, organism-based; settings: time 20-22 hrs
[20] = system: Escherichia coli; assay: Antimicrobial activity against Escherichia coli ATCC 25922 assessed as increase in absorbance incubated for 4 hrs in presence of 25% serum; assay type: functional, organism-based
[21] = system: Escherichia coli; assay: Bactericidal activity against Escherichia coli ATCC 25922 assessed as reduction in bacterial viability at 4 uM measured within 1 hr; assay type: functional
[22] = system: Escherichia coli; assay: Antibacterial activity against Escherichia coli ATCC 25922 injected intraperitoneally in ICR mouse assessed as reduction bacterial load in lung at 10 mg/kg, ip measured after 12 hrs by H and E staining based assay; assay type: functional, organism-based
[23] = Cytotoxicity against porcine IPEC-J2 cells assessed as cell death measured after 18 to 24 hrs by MTT assay; assay type: functional; settings: Sus scrofa, time 18-24 hrs
[24] = system: Escherichia coli; assay: Antimicrobial activity against Escherichia coli K88 assessed as increase in absorbance incubated for 20 to 22 hrs; assay type: functional; settings: time 20-22 hrs
[25] = system: Escherichia coli; assay: Antimicrobial activity against Escherichia coli ATCC 25922 assessed as increase in absorbance incubated for 20 to 22 hrs in presence of K+ physiological salt; assay type: functional, organism-based; settings: time 20-22 hrs
[26] = system: Acinetobacter baumannii; assay: Antimicrobial activity against Acinetobacter baumannii AB1902 assessed as increase in absorbance incubated for 20 to 22 hrs; assay type: functional; settings: time 20-22 hrs
[27] = system: Pseudomonas aeruginosa; assay: Antimicrobial activity against Pseudomonas aeruginosa 27853 assessed as increase in absorbance incubated for 20 to 22 hrs; assay type: functional; settings: time 20-22 hrs
[28] = system: Escherichia coli; assay: Antibacterial activity against Escherichia coli ATCC 25922 injected intraperitoneally in ICR mouse assessed as reduction bacterial load in kidney at 10 mg/kg, ip measured after 12 hrs by H and E staining based assay; assay type: functional, organism-based
[29] = system: Escherichia coli; assay: Antimicrobial activity against Escherichia coli ATCC 25922 assessed as increase in absorbance incubated for 4 hrs in presence of 50% serum; assay type: functional, organism-based
[30] = Toxicity in ICR mouse assessed as slight manifestation of stooping at 20 mg/kg, ip measured within 1 hr; assay type: organism-based; settings: in vivo
[31] = system: Cell membrane; assay: Induction of depolarization of cytoplasmic membrane (CM) in Escherichia coli ATCC 25922 assessed as fluorescence changes at 1/2 to 3 times of MIC measured after 1000 to 3000 seconds by fluorescent probe DiSC3-5 assay; assay type: subcellular; settings: time 1000-3000 sec
[32] = system: Acinetobacter baumannii; assay: Antimicrobial activity against Acinetobacter baumannii AB1901 assessed as increase in absorbance incubated for 20 to 22 hrs; assay type: functional; settings: time 20-22 hrs
[33] = system: Staphylococcus aureus; assay: Antimicrobial activity against Staphylococcus aureus 11011 assessed as increase in absorbance incubated for 20 to 22 hrs; assay type: functional; settings: time 20-22 hrs
[34] = system: Cell membrane; assay: Induction of Outer membrane permeability in Escherichia coli ATCC 25922 incubated for 30 mins by N-phenyl-1-naphthylamine (NPN) uptake assay; assay type: subcellular; settings: dose 1-16 µM
[35] = Toxicity in ICR mouse assessed as kidney weight change at 5 to 20 mg/kg, ip measured after 3 days; assay type: organism-based; settings: in vivo, 72 h, dose 5-20 mg/kg, time 3 day
[36] = system: Escherichia coli; assay: Induction of membrane damage in Escherichia coli ATCC 25922 assessed as damaged membrane surface by analysing leakage (hollow interiors) at 8 uM measured after 1 hr incubation by TEM analysis; assay type: functional, organism-based
[37] = system: Escherichia coli; assay: Antimicrobial activity against Escherichia coli ATCC 25922 assessed as increase in absorbance incubated for 4 hrs in presence of 12.5% serum; assay type: functional, organism-based
[38] = Toxicity in ICR mouse assessed as alanine aminotransferase (ALT) level in serum at 5 to 20 mg/kg, ip measured after 3 days; assay type: organism-based; settings: in vivo, 72 h, dose 5-20 mg/kg, time 3 day

CCCCCCCCCC(=O)NCCCC[C@H](N)C(=O)NCC(=O)NCC(=O)NCC(=O)N[C@H](CCCNC(=N)N)C(=O)N[C@@H](CCCNC(=N)N)C(=O)N[C@@H](CCCNC(=N)N)C(=O)N1CCC[C@H]1C(=O)N[C@@H](CSSC[C@H](NC(=O)[C@@H]1CCCN1C(=O)[C@H](CCCNC(=N)N)NC(=O)[C@H](CCCNC(=N)N)NC(=O)[C@@H](CCCNC(=N)N)NC(=O)CNC(=O)CNC(=O)CNC(=O)[C@@H](N)CCCCNC(=O)CCCCCCCCC)C(=O)O)C(=O)O
Activity [1]: Non-toxic
Activity [2]: Active
Activity [3]: Time-dependent-effect
Activity [4]: Active; Negligible Alteration In Mic Values Found
MIC [5]: 8 µM (≈ 18.2 µg/mL)
Activity [6]: Non-toxic
Activity [7]: Active; Negligible Alteration In Mic Values Found
MIC [8]: 4 µM (≈ 9.12 µg/mL)
Activity [9]: Active
Activity [10]: Active
Stability [11]: Stable
Activity [12]: Active
Activity [13]: Non-toxic
Activity [14]: Active
MIC [15]: 4 µM (≈ 9.12 µg/mL)
Activity [16]: Active
Stability [17]: Stable
Activity [18]: inactive
Activity [19]: Active; C-C10)C-C Demonstrated Superior Physiological Salt Tolerance In Comparison To (N-C10)C-C
Activity [20]: Active
Activity [21]: 100%
Activity [22]: Active
IC10 [23]: 256 µM
MIC [24]: 2 µM (≈ 4.56 µg/mL)
Activity [25]: Active; C-C10)C-C Demonstrated Superior Physiological Salt Tolerance In Comparison To (N-C10)C-C
MIC [26]: 8 µM (≈ 18.2 µg/mL)
MIC [27]: 4 µM (≈ 9.12 µg/mL)
Activity [28]: Active
Activity [29]: Active
Activity [30]: Toxic
Activity [31]: Dose-dependent-effect
MIC [32]: 4 µM (≈ 9.12 µg/mL)
MIC [33]: 8 µM (≈ 18.2 µg/mL)
Activity [34]: Dose-dependent-effect
Activity [35]: Non-toxic
Activity [36]: Active
Activity [37]: Active
Activity [38]: Non-toxic
